Laboratory results reported in patent US11752120B2, “Use of succinic acid in increasing sensitivity of bacteria to antibiotics” (SUN YAT-SEN UNIVERSITY, priority 2018, dated 2023).
Counter-ions that a name gives are not always drawn.

Experiments:
[1] = system: E. coli K12; test: Minimum inhibitory concentration (MIC), NCCLS method, control strain; assay type: cell-based, Escherichia coli; details: no unit in table, MIC in μg/mL
From the text: (§1) Escherichia coli (E. coli) are one of the most common bacteria in the clinic. 30 strains of E. coli obtained from the clinic were named YT1-30. The minimum inhibitory concentrations (MIC) of 8 antibiotics against these 30 clinically obtained E. coli was detected according to the NCCLS method, and E. coli K12 was used as a control.

[2] = system: clinical Escherichia coli YT1-30; test: Minimum inhibitory concentration (MIC), NCCLS method, 30 clinical strains; assay type: cell-based; set-up: Minimum inhibitory concentration (MIC): unit not given here
From the text: as §1

Row | Structure (SMILES) | Minimum inhibitory concentration (MIC) [1] | Minimum inhibitory concentration (MIC) ([2]; strain YT1) | Minimum inhibitory concentration (MIC) ([2]; strain YT2) | Minimum inhibitory concentration (MIC) ([2]; strain YT3) | Minimum inhibitory concentration (MIC) ([2]; strain YT4) | Minimum inhibitory concentration (MIC) ([2]; strain YT5) | Minimum inhibitory concentration (MIC) ([2]; strain YT6) | Minimum inhibitory concentration (MIC) ([2]; strain YT7) | Minimum inhibitory concentration (MIC) ([2]; strain YT8) | Minimum inhibitory concentration (MIC) ([2]; strain YT9) | Minimum inhibitory concentration (MIC) ([2]; strain YT10) | Minimum inhibitory concentration (MIC) ([2]; strain YT11) | Minimum inhibitory concentration (MIC) ([2]; strain YT12) | Minimum inhibitory concentration (MIC) ([2]; strain YT13) | Minimum inhibitory concentration (MIC) ([2]; strain YT14) | Minimum inhibitory concentration (MIC) ([2]; strain YT15) | Minimum inhibitory concentration (MIC) ([2]; strain YT16) | Minimum inhibitory concentration (MIC) ([2]; strain YT17) | Minimum inhibitory concentration (MIC) ([2]; strain YT18) | Minimum inhibitory concentration (MIC) ([2]; strain YT19) | also measured
1 | NCC[C@H](O)C(=O)N[C@@H]1C[C@H](N)[C@@H](O[C@H]2O[C@H](CN)[C@@H](O)[C@H](O)[C@H]2O)[C@H](O)[C@H]1O[C@H]1O[C@H](CO)[C@@H](O)[C@H](N)[C@H]1O [Amikacin] | 0.61 | 9.765 | 9.765 | 9.765 | 9.765 | 9.765 | 9.765 | 9.765 | 9.765 | 2.441 | 39.0625 | 2500 | 2500 | 2500 | 2500 | 2500 | 2500 | 2500 | 2.441 | 9.76 | Minimum inhibitory concentration (MIC) ([2]; strain YT20): 2.441; Minimum inhibitory concentration (MIC) ([2]; strain YT21): 2500; Minimum inhibitory concentration (MIC) ([2]; strain YT22): 625; Minimum inhibitory concentration (MIC) ([2]; strain YT23): 9.765; Minimum inhibitory concentration (MIC) ([2]; strain YT24): 9.765; Minimum inhibitory concentration (MIC) ([2]; strain YT25): 2500; Minimum inhibitory concentration (MIC) ([2]; strain YT26): 2500; Minimum inhibitory concentration (MIC) ([2]; strain YT27): 9.765; Minimum inhibitory concentration (MIC) ([2]; strain YT28): 2500; Minimum inhibitory concentration (MIC) ([2]; strain YT29): 9.765; Minimum inhibitory concentration (MIC) ([2]; strain YT30): 2.441
2 | CNC1CCCN(c2c(F)cc3c(=O)c(C(=O)O)cn(C4CC4)c3c2OC)C1 (centres unmarked) [Balofloxacin] | 0.015 | 0.244 | 3.906 | 15.625 | 250 | 250 | 62.5 | 15.625 | 250 | 250 | 15.625 | 3.906 | 62.5 | 62.5 | 15.625 | 15.625 | 250 | 250 | 62.5 | 62.5 | Minimum inhibitory concentration (MIC) ([2]; strain YT20): 62.5; Minimum inhibitory concentration (MIC) ([2]; strain YT21): 15.625; Minimum inhibitory concentration (MIC) ([2]; strain YT22): 62.5; Minimum inhibitory concentration (MIC) ([2]; strain YT23): 15.625; Minimum inhibitory concentration (MIC) ([2]; strain YT24): 15.625; Minimum inhibitory concentration (MIC) ([2]; strain YT25): 0.244; Minimum inhibitory concentration (MIC) ([2]; strain YT26): 15.625; Minimum inhibitory concentration (MIC) ([2]; strain YT27): 15.625; Minimum inhibitory concentration (MIC) ([2]; strain YT28): 15.625; Minimum inhibitory concentration (MIC) ([2]; strain YT29): 15.625; Minimum inhibitory concentration (MIC) ([2]; strain YT30): 15.625
3 | CC(C)(O/N=C(\C(=O)N[C@@H]1C(=O)N2C(C(=O)[O-])=C(C[n+]3ccccc3)CS[C@H]12)c1csc(N)n1)C(=O)O [Ceftazidime] | 0.122 | 0.122 | 0.488 | 0.488 | 0.488 | 7.81 | 1.953 | 0.488 | 0.488 | 0.488 | 7.812 | 7.812 | 0.488 | 0.488 | 0.488 | 0.488 | 0.488 | 0.488 | 0.488 | 0.488 | MIC compared with the control E. coli K12 ([2]; strain YT1): the same as the control; Minimum inhibitory concentration (MIC) ([2]; strain YT20): 0.122; Minimum inhibitory concentration (MIC) ([2]; strain YT21): 0.488; Minimum inhibitory concentration (MIC) ([2]; strain YT22): 0.488; Minimum inhibitory concentration (MIC) ([2]; strain YT23): 0.488; Minimum inhibitory concentration (MIC) ([2]; strain YT24): 7.812; Minimum inhibitory concentration (MIC) ([2]; strain YT25): 31.25; Minimum inhibitory concentration (MIC) ([2]; strain YT26): 31.25; Minimum inhibitory concentration (MIC) ([2]; strain YT27): 0.488; Minimum inhibitory concentration (MIC) ([2]; strain YT28): 31.25; Minimum inhibitory concentration (MIC) ([2]; strain YT29): 7.812; Minimum inhibitory concentration (MIC) ([2]; strain YT30): 7.812
4 | CCC[C@@H]1C[C@@H](C(=O)N[C@@H]([C@H]2O[C@H](SC)[C@H](O)[C@@H](O)[C@H]2O)[C@H](C)Cl)N(C)C1 [Clindamycin hydrochloride] | 24.414 | 390.625 | 390.625 | 390.625 | 1562.5 | 6250 | 1562.5 | 6250 | 6250 | 1562.5 | 6250 | 25000 | 25000 | 25000 | 25000 | 25000 | 25000 | 25000 | 390.625 | 390.625 | Minimum inhibitory concentration (MIC) ([2]; strain YT20): 390.625; Minimum inhibitory concentration (MIC) ([2]; strain YT21): 390.625; Minimum inhibitory concentration (MIC) ([2]; strain YT22): 390.625; Minimum inhibitory concentration (MIC) ([2]; strain YT23): 390.625; Minimum inhibitory concentration (MIC) ([2]; strain YT24): 390.625; Minimum inhibitory concentration (MIC) ([2]; strain YT25): 390.625; Minimum inhibitory concentration (MIC) ([2]; strain YT26): 390.625; Minimum inhibitory concentration (MIC) ([2]; strain YT27): 390.625; Minimum inhibitory concentration (MIC) ([2]; strain YT28): 1562.5; Minimum inhibitory concentration (MIC) ([2]; strain YT29): 390.625; Minimum inhibitory concentration (MIC) ([2]; strain YT30): 390.625
